Reference: ChEMBL document CHEMBL5537115, “New broad-spectrum and potent antibacterial agents with dual-targeting mechanism: Promoting FtsZ polymerization and disrupting bacterial membranes” (Eur J Med Chem, 2024)
In brackets after ≈: the same amount, converted by molar mass.

How the values were obtained:
Type in all cases: functional
Staphylococcus aureus [1] = test: Antibacterial activity against penicillin-resistant Staphylococcus aureus ATCC31007 assessed as bacterial growth inhibition incubated for 20 hrs by CLSI based broth microdilution method
Staphylococcus aureus [2] = test: Antibacterial activity against erythromycin-susceptible Staphylococcus aureus ATCC25923 assessed as bacterial growth inhibition incubated for 20 hrs by CLSI based broth microdilution method
Acinetobacter baumannii = test: Antibacterial activity against Acinetobacter baumannii ATCC19606 assessed as bacterial growth inhibition incubated for 20 hrs by CLSI based broth microdilution method
Streptococcus pyogenes [3] = test: Antibacterial activity against erythromycin-susceptible Streptococcus pyogenes 1 assessed as bacterial growth inhibition incubated for 20 hrs by CLSI based broth microdilution method
Escherichia coli [4] = test: Antibacterial activity against penicillin-susceptible Escherichia coli ATCC25922 assessed as bacterial growth inhibition incubated for 20 hrs by CLSI based broth microdilution method
Enterococcus faecium [5] = test: Antibacterial activity against vancomycin-resistant Enterococcus faecium ATCC51559 assessed as bacterial growth inhibition incubated for 20 hrs by CLSI based broth microdilution method
Bacillus pumilus = test: Antibacterial activity against penicillin-susceptible Bacillus pumilus CMCC63202 assessed as bacterial growth inhibition incubated for 20 hrs by CLSI based broth microdilution method
Bacillus subtilis = test: Antibacterial activity against penicillin-susceptible Bacillus subtilis ATCC9372 assessed as bacterial growth inhibition incubated for 20 hrs by CLSI based broth microdilution method
Klebsiella pneumoniae = test: Antibacterial activity against Klebsiella pneumoniae ATCC BAA-1902 assessed as bacterial growth inhibition incubated for 20 hrs by CLSI based broth microdilution method
Escherichia coli [6] = test: Antibacterial activity against wild-type Escherichia coli BW25113 assessed as bacterial growth inhibition incubated for 20 hrs by CLSI based broth microdilution method
Staphylococcus aureus [7] = test: Antibacterial activity against Staphylococcus aureus clinical isolate assessed as bacterial growth inhibition incubated for 20 hrs by CLSI based broth microdilution method
Enterococcus faecium [8] = test: Antibacterial activity against vancomycin-susceptible Enterococcus faecium ATCC19434 assessed as bacterial growth inhibition incubated for 20 hrs by CLSI based broth microdilution method
[9] = tested on: Staphylococcus epidermidis; test: Antibacterial activity against penicillin-resistant Staphylococcus epidermidis clinical isolate assessed as bacterial growth inhibition incubated for 20 hrs by CLSI based broth microdilution method
Staphylococcus aureus [10] = test: Antibacterial activity against methicillin-resistant Staphylococcus aureus ATCC43300 assessed as bacterial growth inhibition incubated for 20 hrs by CLSI based broth microdilution method
Streptococcus pyogenes [11] = test: Antibacterial activity against erythromycin-resistant Streptococcus pyogenes 2 clinical isolate assessed as bacterial growth inhibition incubated for 20 hrs by CLSI based broth microdilution method
Enterococcus faecalis [12] = test: Antibacterial activity against vancomycin-susceptible Enterococcus faecalis ATCC29212 assessed as bacterial growth inhibition incubated for 20 hrs by CLSI based broth microdilution method
Enterococcus faecalis [13] = test: Antibacterial activity against vancomycin-resistant Enterococcus faecalis ATCC51299 assessed as bacterial growth inhibition incubated for 20 hrs by CLSI based broth microdilution method

SMILES	MIC (Staphylococcus aureus [1]) [µg/mL]	MIC (Staphylococcus aureus [2]) [µg/mL]	MIC (Acinetobacter baumannii) [µg/mL]	MIC (Streptococcus pyogenes [3]) [µg/mL]	MIC (Escherichia coli [4]) [µg/mL]	MIC (Enterococcus faecium [5]) [µg/mL]	MIC (Bacillus pumilus) [µg/mL]	MIC (Bacillus subtilis) [µg/mL]	MIC (Klebsiella pneumoniae) [µg/mL]	MIC (Escherichia coli [6]) [µg/mL]	MIC (Staphylococcus aureus [7]) [µg/mL]	MIC (Enterococcus faecium [8]) [µg/mL]	MIC [9] [µg/mL]	MIC (Staphylococcus aureus [10]) [µg/mL]	MIC (Streptococcus pyogenes [11]) [µg/mL]	MIC (Enterococcus faecalis [12]) [µg/mL]	MIC (Enterococcus faecalis [13]) [µg/mL]
C[n+]1cc(-c2ccccc2)cc(/C=C/c2ccc(Br)cc2)c1-c1ccccc1.[I-]	16	1	8	4	64	16	8	2	64	> 64	2	16	8	4	4	16	16
NC(=O)c1c(F)ccc(OCc2nc3cc(Cl)cnc3s2)c1F	2 (≈ 5.62 µM)	1 (≈ 2.81 µM)	> 64	> 64	> 64	> 64	0.5 (≈ 1.41 µM)	0.5 (≈ 1.41 µM)	> 64	> 64	1 (≈ 2.81 µM)	> 64	> 64	1 (≈ 2.81 µM)	> 64	> 64	> 64
CCCCCCOc1ccc(/C=C/c2cc(-c3ccccc3)[n+](C)cc2-c2ccccc2)cc1.[I-]	2	0.5	4	2	4	1	0.5	0.5	8	4	0.5	2	2	2	2	2	2
C[n+]1cc(-c2ccccc2)c(/C=C/c2ccc(O)cc2)cc1-c1ccccc1.[I-]	64	2	32	4	> 64	64	32	8	64	> 64	16	64	16	32	16	64	64
Cc1ccc(/C=C/c2cc(-c3ccc(C(C)(C)C)cc3)[n+](C)cc2-c2ccccc2C)cc1.[I-]	2	1	4	2	8	2	1	0.5	8	8	0.5	2	2	0.5	4	4	2
CCOc1ccc(/C=C/c2cc(-c3ccccc3)c[n+](C)c2-c2ccccc2)cc1.[I-]	16	2	16	4	> 64	16	16	4	> 64	> 64	2	32	16	8	8	16	32
CC(C)c1ccc(/C=C/c2cc(-c3ccc(C(C)(C)C)cc3)[n+](C)cc2-c2ccccc2)cc1.[I-]	1	0.125	1	4	2	1	0.25	0.125	8	4	0.5	1	1	0.25	2	1	0.5
Cc1ccc(/C=C/c2cc(-c3ccccc3)c[n+](C)c2-c2ccccc2)cc1.[I-]	32	1	32	4	> 64	16	16	2	> 64	> 64	2	32	32	4	4	16	32
CCCCCOc1ccc(/C=C/c2cc(-c3ccccc3)[n+](C)cc2-c2ccccc2)cc1.[I-]	1	0.5	2	2	4	1	0.5	0.5	4	2	0.5	0.5	1	1	2	2	1
C[n+]1cc(-c2ccccc2)c(/C=C/c2ccc(N)cc2)cc1-c1ccc(C(C)(C)C)cc1.[I-]	2	0.125	4	4	16	4	2	0.5	16	32	0.25	4	4	0.5	2	4	4
CCc1ccc(/C=C/c2cc(-c3ccccc3)c[n+](C)c2-c2ccccc2)cc1.[I-]	4	1	32	4	> 64	16	8	4	16	> 64	2	16	16	8	8	16	16
C[n+]1cc(-c2ccccc2)c(/C=C/c2ccc(O)cc2)cc1-c1ccc(C(C)(C)C)cc1.[I-]	4	0.125	8	2	64	4	4	1	> 64	64	0.5	4	4	1	2	4	4
C[n+]1cc(-c2ccccc2)c(/C=C/c2ccc(C(C)(C)C)cc2)cc1-c1ccc2ccccc2c1.[I-]	2	1	1	1	64	2	0.5	0.5	8	4	0.5	2	2	1	4	1	2
CC1(C)S[C@@H]2[C@H](NC(=O)[C@H](NC(=O)N3CCN(S(C)(=O)=O)C3=O)c3ccccc3)C(=O)N2[C@H]1C(=O)O [MEZLOCILLIN]	> 64	1 (≈ 1.85 µM)	64 (≈ 119 µM)	< 0.062	1 (≈ 1.85 µM)	> 64	2 (≈ 3.71 µM)	4 (≈ 7.41 µM)	> 64	1 (≈ 1.85 µM)	32 (≈ 59.3 µM)	16 (≈ 29.7 µM)	> 64	16 (≈ 29.7 µM)	< 0.062	2 (≈ 3.71 µM)	> 64
C[n+]1cc(-c2ccccc2)c(/C=C/c2ccc(N3CCCCC3)cc2)cc1-c1ccc2ccccc2c1.[I-]	2	0.5	2	2	64	2	0.5	1	16	4	0.5	1	2	1	2	1	2
CCCCCCOc1ccc(/C=C/c2cc(-c3ccccc3)c[n+](C)c2-c2ccccc2)cc1.[I-]	2	0.25	2	2	8	2	0.5	2	> 64	4	1	2	2	1	2	2	1
C[n+]1cc(-c2ccccc2)cc(/C=C/c2ccc(F)cc2)c1-c1ccccc1.[I-]	64	2	32	8	> 64	64	32	8	> 64	> 64	8	64	64	8	8	64	> 64
